In patent US9926324B2, “Heteroaromatic compounds as PI3 kinase modulators and methods of use” (Calitor Sciences, LLC, priority 2012, dated 2018):
Where two headings read alike, the source gives them in different places.

Tests used:
[1] = Compound stability in rat liver microsomes; assay type: in vitro ADME; conditions: for half-life at 5 μM / CLint scaled at 5 μM: pH 7.4; for half-life at 5 μM: read-out: Rat T1/2; for CLint scaled at 5 μM: rat liver microsomes, in vivo CLint extrapolated
Protocol: (§1) Human or rat liver microsomes incubations were conducted in duplicate in polypropylene tubes. The typical incubation mixtures consisted of human or rat liver microsomes (0.5 mg protein/mL), compounds of interest (5 μM) and NADPH (1.0 mM) in a total volume of 200 μL potassium phosphate buffer (PBS, 100 mM, pH=7.4). Compounds were dissolved in DMSO and diluted with PBS such that the final concentration of DMSO was 0.05%. The enzymatic reactions were commenced with the addition of […] after a 3-min preincubation and incubated in a water bath open to the air at 37° C. Reactions were terminated at various time points (0, 5, 10, 15, 30, 60 min) by adding equal volume of ice-cold acetonitrile. The samples were stored at −80° C. until LC/MS/MS assays.
(§2) The concentrations of compounds in the incubation mixtures of human or rat liver microsomes were determined by a LC/MS/MS method. The ranges of the linearity in the concentration range were determined for each tested compounds.
(§3) A parallel incubation was performed using denatured microsomes as the negative control, and reactions were terminated at various time points (0, 15, 60 min) after incubation at 37° C.
(§4) Dextromethorphan (70 μM) was selected as the positive control, and reactions were terminated at various time points (0, 5, 10, 15, 30, 60 min) after incubation at 37° C. Both positive and negative control samples were included in each assay to ensure the integrity of the microsomal incubation system.
(§5) The concentrations of compounds in human or rat liver microsome incubations were plotted as a percentage of the relevant zero time point control for each reaction. The in vivo CLint were extrapolated (ref: Naritomi Y, Terashita S, Kimura S, Suzuki A, Kagayama A, Sugiyama Y. Prediction of human hepatic clearance from in vivo animal experiments and in vitro metabolic studies with liver microsomes from animals and humans. Drug Metabolism and Disposition 2001, 29: 1316-1324).

PI3K p110α/p85α (h) = biological target: T1, PI3K p110α/p85α (h) (Homo sapiens, UniProt P42336); experiment: PI3K p110α/p85α (h) non-radioactive HTRF assay; assay type: biochemical
T1 construct: purchased Millipore UK Ltd (assay service)
T1 sequence (P42336 whole entry): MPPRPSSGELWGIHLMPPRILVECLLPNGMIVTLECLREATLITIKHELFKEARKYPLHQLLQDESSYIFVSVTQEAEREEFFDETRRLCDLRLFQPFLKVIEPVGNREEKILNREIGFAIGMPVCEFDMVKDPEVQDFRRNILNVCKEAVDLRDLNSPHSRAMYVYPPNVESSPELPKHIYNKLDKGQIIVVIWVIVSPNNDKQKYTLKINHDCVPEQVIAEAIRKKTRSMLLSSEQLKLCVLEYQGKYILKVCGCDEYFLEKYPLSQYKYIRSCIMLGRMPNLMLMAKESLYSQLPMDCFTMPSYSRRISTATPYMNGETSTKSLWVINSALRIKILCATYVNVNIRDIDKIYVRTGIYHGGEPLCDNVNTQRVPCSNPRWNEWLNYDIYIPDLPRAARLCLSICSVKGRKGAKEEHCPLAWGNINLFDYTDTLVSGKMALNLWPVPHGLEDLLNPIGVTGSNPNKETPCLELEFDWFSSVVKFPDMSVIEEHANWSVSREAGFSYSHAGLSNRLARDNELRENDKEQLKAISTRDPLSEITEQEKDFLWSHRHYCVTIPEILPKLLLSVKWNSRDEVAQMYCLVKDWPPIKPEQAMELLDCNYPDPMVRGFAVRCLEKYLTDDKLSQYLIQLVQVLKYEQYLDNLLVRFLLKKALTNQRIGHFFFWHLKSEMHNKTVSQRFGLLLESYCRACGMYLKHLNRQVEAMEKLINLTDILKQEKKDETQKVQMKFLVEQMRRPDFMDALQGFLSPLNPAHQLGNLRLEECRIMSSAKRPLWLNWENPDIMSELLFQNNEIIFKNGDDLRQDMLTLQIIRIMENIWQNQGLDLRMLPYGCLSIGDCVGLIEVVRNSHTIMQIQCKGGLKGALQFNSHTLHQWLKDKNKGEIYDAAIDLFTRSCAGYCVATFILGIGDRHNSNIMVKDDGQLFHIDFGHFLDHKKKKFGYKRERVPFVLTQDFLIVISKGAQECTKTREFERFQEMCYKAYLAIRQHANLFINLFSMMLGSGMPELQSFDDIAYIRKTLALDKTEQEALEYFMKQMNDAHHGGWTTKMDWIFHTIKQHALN
T1 sequence (P27986 whole entry partner): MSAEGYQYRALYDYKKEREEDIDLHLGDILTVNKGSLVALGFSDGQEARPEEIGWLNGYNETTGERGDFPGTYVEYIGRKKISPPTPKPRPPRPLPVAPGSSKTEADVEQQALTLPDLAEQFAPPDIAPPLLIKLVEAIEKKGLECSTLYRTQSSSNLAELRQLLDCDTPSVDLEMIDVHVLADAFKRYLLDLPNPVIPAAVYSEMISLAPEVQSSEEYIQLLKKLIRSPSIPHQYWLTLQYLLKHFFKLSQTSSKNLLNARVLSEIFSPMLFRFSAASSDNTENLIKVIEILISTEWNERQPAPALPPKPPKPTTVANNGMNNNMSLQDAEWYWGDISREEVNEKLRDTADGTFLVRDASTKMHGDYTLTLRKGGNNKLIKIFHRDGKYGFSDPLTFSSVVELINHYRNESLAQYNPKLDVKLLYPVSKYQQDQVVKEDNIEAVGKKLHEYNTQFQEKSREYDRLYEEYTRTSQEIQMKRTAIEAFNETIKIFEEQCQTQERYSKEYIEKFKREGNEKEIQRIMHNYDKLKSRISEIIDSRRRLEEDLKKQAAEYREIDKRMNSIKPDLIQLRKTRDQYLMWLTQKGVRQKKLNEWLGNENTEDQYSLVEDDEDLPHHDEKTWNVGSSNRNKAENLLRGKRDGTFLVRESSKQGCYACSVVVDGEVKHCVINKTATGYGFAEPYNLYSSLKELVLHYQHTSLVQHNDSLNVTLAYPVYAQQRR
Protocol: (§6) PI3K p110α/p85α (h) is incubated in assay buffer containing 10 μM phosphatidylinositol 4,5-bisphosphate and MgATP (concentration as required). The reaction is initiated by the addition of the ATP solution. After incubation for 30 minutes at room temperature, the reaction is stopped by the addition of stop solution containing EDTA and biotinylated phosphatidylinositol-3,4,5-trisphosphate. Finally, detection buffer is added, which contains europium-labelled anti-GST monoclonal antibody, GST-tagged GRP1 PH domain and streptavidin allophycocyanin. The plate is then read in timeresolved fluorescence mode and the homogenous time-resolved fluorescence (HTRF) signal is determined according to the formula HTRF=10000×(Em665 nm/Em620 nm).
(§7) The kinase assays described herein were performed at Millipore UK Ltd, Dundee Technology Park, Dundee DD2 1SW, UK.

mTOR (h) = biological target: T2, mTOR (h) (Homo sapiens, UniProt P42345); experiment: mTOR (h) kinase assay (33P-ATP, filter); assay type: biochemical
T2 construct: purchased Millipore UK Ltd (assay service)
Protocol: mTOR (h) is incubated with 50 mM HEPES pH 7.5, 1 mM EDTA, 0.01% Tween 20, 2 mg/mL substrate, 3 mM Manganese Chloride and [γ-^33P-ATP] (specific activity approx. 500 cpm/pmol, concentration as required). The reaction is initiated by the addition of the MnATP mix. After incubation for 40 minutes at room temperature, the reaction is stopped by the addition of 3% phosphoric acid solution. 10 μL of the reaction is then spotted onto a P30 filtermat and washed three times for 5 minutes in 75 mM phosphoric acid and once in methanol prior to drying and scintillation counting.
as §7

[2] = Pharmacokinetic profiles in rats after intravenous and oral administration; assay type: in vivo; conditions: for F: oral dose generally 5 or 10 mg/kg; for AUC(0-t) / half-life / Vd: rat, plasma; for Vd: read-out: Vss
Protocol: The compounds disclosed herein are assessed in pharmacokinetic studies in mice, rats, dogs or monkeys. The compounds are administered as a water solution, 2% HPMC+1% TWEEN® 80 in water solution, 5% DMSO+5% solutol in saline, 4% MC suspension or capsule. For the intravenous administration, the animals are generally given at 1 or 2 mg/kg dose. For the oral (p.o.) dosing, mice and rats are generally given 5 or 10 mg/kg dose, and dogs and monkeys are generally given 10 mg/kg dose. The blood samples (0.3 mL) are drawn at 0.25, 0.5, 1.0, 2.0, 3.0, 4.0, 6.0, 8.0, 12 and 24 h time points or 0.083, 0.25, 0.5, 1.0, 2.0, 4.0, 6.0, 8.0 and 24 h time points and centrifuged at 3,000 or 4000 rpm for 2 to 10 min. The plasma solutions are collected, stored at −20° C. or −70° C. until analyzed by LC/MS/MS as described above.

[3] = Compound stability in human liver microsomes; assay type: in vitro ADME; conditions: pH 7.4; for half-life at 5 μM: human liver microsomes 0.5 mg protein/mL, compound 5 μM, NADPH 1.0 mM, 37° C., read-out: Human T1/2; for CLint scaled at 5 μM: human liver microsomes, in vivo CLint extrapolated
Protocol: as §1, §2, §3, §4, §5

PI3K p110β/p85α (h) = biological target: T3, PI3K p110β/p85α (h) (Homo sapiens, UniProt P42338); experiment: PI3K p110β/p85α (h) non-radioactive HTRF assay; assay type: biochemical
T3 construct: purchased Millipore UK Ltd (assay service)
T3 sequence (P42338 whole entry): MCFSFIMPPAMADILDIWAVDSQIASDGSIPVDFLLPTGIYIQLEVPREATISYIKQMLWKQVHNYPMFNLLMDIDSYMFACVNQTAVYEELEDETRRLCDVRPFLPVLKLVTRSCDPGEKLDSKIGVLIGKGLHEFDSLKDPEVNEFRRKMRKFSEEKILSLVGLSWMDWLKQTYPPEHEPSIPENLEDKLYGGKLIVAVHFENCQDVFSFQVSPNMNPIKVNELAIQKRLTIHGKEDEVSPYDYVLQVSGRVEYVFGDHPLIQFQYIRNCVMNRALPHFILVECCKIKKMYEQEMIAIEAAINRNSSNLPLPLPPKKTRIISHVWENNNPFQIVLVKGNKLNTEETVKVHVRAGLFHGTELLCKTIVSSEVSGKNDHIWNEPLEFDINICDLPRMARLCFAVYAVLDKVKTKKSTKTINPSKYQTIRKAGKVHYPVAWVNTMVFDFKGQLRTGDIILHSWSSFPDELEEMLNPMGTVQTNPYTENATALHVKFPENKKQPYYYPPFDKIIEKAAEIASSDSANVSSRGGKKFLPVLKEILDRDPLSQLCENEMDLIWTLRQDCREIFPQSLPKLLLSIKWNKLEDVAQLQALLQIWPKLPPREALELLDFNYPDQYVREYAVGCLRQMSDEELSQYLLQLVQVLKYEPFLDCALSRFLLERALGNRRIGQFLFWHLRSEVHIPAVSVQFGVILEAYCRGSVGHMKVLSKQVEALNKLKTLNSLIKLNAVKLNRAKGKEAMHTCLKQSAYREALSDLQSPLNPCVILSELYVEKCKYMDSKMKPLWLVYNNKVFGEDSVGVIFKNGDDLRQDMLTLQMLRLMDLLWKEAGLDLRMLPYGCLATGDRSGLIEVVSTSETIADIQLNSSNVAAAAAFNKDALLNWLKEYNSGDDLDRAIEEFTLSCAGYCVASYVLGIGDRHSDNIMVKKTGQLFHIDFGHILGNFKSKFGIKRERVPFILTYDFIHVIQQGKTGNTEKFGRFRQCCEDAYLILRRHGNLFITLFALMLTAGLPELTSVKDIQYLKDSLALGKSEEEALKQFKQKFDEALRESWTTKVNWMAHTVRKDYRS
T3 sequence (P27986 whole entry partner): as the sequence (P27986 whole entry partner) above
Protocol: as §6, with “(p110β/p85α)” for “p110α/p85α”, “phosphatidylinositol-4,5-bisphosphate” for “phosphatidylinositol 4,5-bisphosphate”, “MgATP mix.” for “ATP solution.”, “streptavidin-allophycocyanin.” for “streptavidin allophycocyanin.”
as §7

PI3K (p110δ/p85α) (h) = biological target: T4, PI3K (p110δ/p85α) (h) (Homo sapiens, UniProt O00329); experiment: PI3K p110δ/p85α (h) non-radioactive HTRF assay; assay type: biochemical
T4 construct: purchased Millipore UK Ltd (assay service)
T4 sequence (O00329 whole entry): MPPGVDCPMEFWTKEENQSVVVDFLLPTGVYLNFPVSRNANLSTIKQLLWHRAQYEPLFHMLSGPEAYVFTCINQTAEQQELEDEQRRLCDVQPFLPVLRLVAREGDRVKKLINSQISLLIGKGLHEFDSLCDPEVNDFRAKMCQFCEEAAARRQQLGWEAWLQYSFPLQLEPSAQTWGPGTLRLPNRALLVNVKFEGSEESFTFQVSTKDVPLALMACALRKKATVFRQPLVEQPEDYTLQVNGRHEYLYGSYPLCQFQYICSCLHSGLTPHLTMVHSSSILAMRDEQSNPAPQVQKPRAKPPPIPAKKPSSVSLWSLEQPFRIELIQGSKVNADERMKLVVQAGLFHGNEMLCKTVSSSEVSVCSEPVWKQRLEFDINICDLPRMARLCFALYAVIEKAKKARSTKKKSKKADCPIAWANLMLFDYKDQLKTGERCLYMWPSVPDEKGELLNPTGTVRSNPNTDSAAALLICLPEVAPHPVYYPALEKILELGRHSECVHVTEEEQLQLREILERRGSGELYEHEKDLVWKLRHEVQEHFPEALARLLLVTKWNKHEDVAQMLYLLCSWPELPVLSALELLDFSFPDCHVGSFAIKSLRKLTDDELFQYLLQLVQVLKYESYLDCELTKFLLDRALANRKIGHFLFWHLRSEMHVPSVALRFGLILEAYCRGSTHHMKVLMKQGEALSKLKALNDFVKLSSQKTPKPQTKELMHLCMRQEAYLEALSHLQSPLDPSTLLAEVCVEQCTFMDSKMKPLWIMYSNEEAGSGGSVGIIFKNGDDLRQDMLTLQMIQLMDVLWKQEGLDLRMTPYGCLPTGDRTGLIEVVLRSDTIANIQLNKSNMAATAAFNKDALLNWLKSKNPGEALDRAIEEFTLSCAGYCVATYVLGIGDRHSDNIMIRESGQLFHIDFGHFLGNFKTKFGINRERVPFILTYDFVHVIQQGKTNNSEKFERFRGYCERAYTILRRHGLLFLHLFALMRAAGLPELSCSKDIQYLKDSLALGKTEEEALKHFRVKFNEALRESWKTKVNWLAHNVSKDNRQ
T4 sequence (P27986 whole entry partner): as the sequence (P27986 whole entry partner) above
Protocol: as §6, with “(p110δ/p85α)” for “p110α/p85α”, “phosphatidylinositol-4,5-bisphosphate” for “phosphatidylinositol 4,5-bisphosphate”, “MgATP mix.” for “ATP solution.”, “streptavidin-allophycocyanin.” for “streptavidin allophycocyanin.”
as §7

U87MG glioblastoma cells = experiment: Tumor xenograft model (U87MG), tumor growth inhibition; assay type: in vivo, athymic nude mice; conditions: 14 days
Protocol: The efficacy of compounds disclosed herein was evaluated in a standard murine model of tumorigenesis. Human tumor cells (U87MG glioblastoma cells from ATCC) were expended in culture, harvested, and injected subcutaneously onto the rear flank of 6-7 week old female athymic nude mice (BALB/cA nu/nu, Hunan SLAC Laboratory Animal, Co.) (n=6-10 for vehicle group and for each dosing group). When tumors reached a volume of 100-250 mm^3, animals were randomly divided into vehicle control (for example, 5% DMSO+70% Captisol® (30%), 7% HCl (pH1), 18% Captisol® (30%); or 7% DMSO, 7% HCl (pH1), 70% Captisol® (30%), 16% Captisol® (30%), or the like) and compound groups. Subsequent administration of compound by oral gavage begins anywhere from day 0 to day 15 post tumor cell challenge and generally continues with once a day for the duration of the experiment.
Progression of tumor growth is assessed by tumor volumes and recorded as a function of time. The long (L) and short (W) axes of the subcutaneous tumors were measured with calipers twice weekly, and the tumor volume (TV) calculated as (L×W^2)/2). TGI was calculated from the difference between the median tumor volumes of vehicle-treated and drug-treated mice, expressed as a percentage of the median tumor volume of the vehicle-treated control group, by the following relation:
Initial statistical analysis is done by repeated measures analysis of variance (RMANOVA), followed by Scheffe psot hoc testing for multiple comparisons. Vehicle alone (5% DMSO+70% Captisol® (30%), 7% HCl (pH1), 18% Captisol® (30%); or 7% DMSO, 7% HCl (pH1), 70% Captisol® (30%), 16% Captisol® (30%), or the like) is the negative control.

[4] = rat liver microsomes 0.5 mg protein/mL, compound 5 μM, NADPH 1.0 mM, 37° C.

Row | half-life at 5 μM [1, 4] [h] | CLint scaled at 5 μM [1] [mL/min/kg] | IC50 (PI3K p110α/p85α (h)) [nM] | IC50 (mTOR (h)) [nM] | F ([2]; iv dose 1 mg/kg) [%] | Cl/F ([2]; iv dosing 1 mg/kg) [mL/min/kg] | AUC(0-t) ([2]; iv dosing 1 mg/kg) [ng·h/mL] | half-life ([2]; iv dosing 1 mg/kg) [h] | Vd ([2]; iv dosing 1 mg/kg) [L/kg] | half-life at 5 μM [3] [h] | CLint scaled at 5 μM [3] [mL/min/kg] | F ([2]; iv dose 2 mg/kg) [%] | Cl/F ([2]; iv dosing 2 mg/kg) [mL/min/kg] | AUC(0-t) ([2]; iv dosing 2 mg/kg) [ng·h/mL] | half-life ([2]; iv dosing 2 mg/kg) [h] | Vd ([2]; iv dosing 2 mg/kg) [L/kg] | IC50 (PI3K p110β/p85α (h)) [nM] | IC50 (PI3K (p110δ/p85α) (h)) [nM] | SMILES | other results
1 | 1.62 | 25.5 | 14 | 23 | 96.0 | 2.33 | 6540 | 6.39 | 1 | 2.69 | 10.8 | – | – | – | – | – | – | – | C#Cc1cnc2ccc(-c3cnc(OC)c(NS(=O)(=O)c4ccc(F)cc4)c3)nn12 [Ex. 1, N-(5-(3-ethynylimidazo[1,2-b]pyridazin-6-yl)-2-methoxypyridin-3-yl)-4-fluorobenzenesulfonamide] | –
2 | 1.25 | 33.2 | 6 | 12 | – | – | – | – | – | 4.04 | 7.17 | 115.1 | 2.17 | 16600 | 3.02 | 0.37 | – | – | C#Cc1cnc2ccc(-c3cnc(OC)c(NS(=O)(=O)c4ccc(F)cc4F)c3)nn12 [Ex. 8, N-(5-(3-ethynylimidazo[1,2-b]pyridazin-6-yl)-2-methoxypyridin-3-yl)-2,4-difluorobenzenesulfonamide] | –
3 | 0.731 | 56.6 | – | – | 97.16 | 1.67 | 10300 | 2.33 | 0.35 | 3.54 | 8.18 | – | – | – | – | – | 28 | 2 | CC#Cc1cnc2ccc(-c3cnc(OC)c(NS(=O)(=O)c4ccc(F)cc4F)c3)cn12 [Ex. 18, 2,4-difluoro-N-(2-methoxy-5-(3-(prop-1-yn-1-yl)imidazo[1,2-a]pyridin-6-yl)pyridin-3-yl)benzenesulfonamide] | –
4 | 0.843 | 49.1 | 12 | 16 | – | – | – | – | – | 2.4 | 12.1 | 61.5 | 1.2 | 29000 | 3.11 | 0.16 | – | – | COc1ncc(-c2ccc3ncc(C#CC(C)O)n3n2)cc1NS(=O)(=O)c1ccc(F)cc1 (stereo not shown) [Ex. 3, 4-fluoro N (5 (3 (3 hydroxybut-1-yn-1-yl)imidazo[1,2-b]pyridazin-6-yl)-2-methoxypyridin-3-yl)benzenesulfonamide] | –
5 | – | – | 6 | 29 | – | – | – | – | – | – | – | 56.1 | 1.67 | 20700 | 3.42 | 0.22 | – | – | COc1ncc(-c2ccc3ncc(C#CCO)n3n2)cc1NS(=O)(=O)c1ccc(F)cc1 [Ex. 2, 4-fluoro-N-(5-(3-(3-hydroxyprop-1-yn-1-yl)imidazo[1,2-b]pyridazin-6-yl)-2-methoxypyridin-3-yl)benzenesulfonamide] | TGI % U87MG (U87MG glioblastoma cells; 1 mg/kg oral gavage): 6%; TGI % U87MG (U87MG glioblastoma cells; 3 mg/kg oral gavage): 21%; TGI % U87MG (U87MG glioblastoma cells; 10 mg/kg oral gavage): 35%
6 | – | – | – | – | – | – | – | – | – | 7.07 | 4.1 | 54.66 | 3.83 | 10100 | 2.58 | 0.55 | 28 | 4 | COc1ncc(-c2ccc3ncc(C#N)n3c2)cc1NS(=O)(=O)c1ccc(F)cc1F [Ex. 19, N-(5-(3-cyanoimidazo[1,2-a]pyridin-6-yl)-2-methoxypyridin-3-yl)-2,4-difluorobenzenesulfonamide] | Rat T1/2 [1, 4]: ∞
